Among the data in BindingDB's records for doi:10.1021/acs.jmedchem.9b01709 (The Institute of Cancer Research, 2019) are Ki values, retold here.

In the experiment the target is Heat shock 70 kDa protein 1A (HSP72/HSPA1A) (Homo sapiens) (UniProt P0DMV8). Description: Covalent inhibition of HSP72-NBD (unknown origin) nucleotide-derived FP probe displacement based by fluorescence polarization assay.
Heat shock 70 kDa protein 1A (HSP72/HSPA1A) (Homo sapiens), sequence (P0DMV8 whole entry, looked up): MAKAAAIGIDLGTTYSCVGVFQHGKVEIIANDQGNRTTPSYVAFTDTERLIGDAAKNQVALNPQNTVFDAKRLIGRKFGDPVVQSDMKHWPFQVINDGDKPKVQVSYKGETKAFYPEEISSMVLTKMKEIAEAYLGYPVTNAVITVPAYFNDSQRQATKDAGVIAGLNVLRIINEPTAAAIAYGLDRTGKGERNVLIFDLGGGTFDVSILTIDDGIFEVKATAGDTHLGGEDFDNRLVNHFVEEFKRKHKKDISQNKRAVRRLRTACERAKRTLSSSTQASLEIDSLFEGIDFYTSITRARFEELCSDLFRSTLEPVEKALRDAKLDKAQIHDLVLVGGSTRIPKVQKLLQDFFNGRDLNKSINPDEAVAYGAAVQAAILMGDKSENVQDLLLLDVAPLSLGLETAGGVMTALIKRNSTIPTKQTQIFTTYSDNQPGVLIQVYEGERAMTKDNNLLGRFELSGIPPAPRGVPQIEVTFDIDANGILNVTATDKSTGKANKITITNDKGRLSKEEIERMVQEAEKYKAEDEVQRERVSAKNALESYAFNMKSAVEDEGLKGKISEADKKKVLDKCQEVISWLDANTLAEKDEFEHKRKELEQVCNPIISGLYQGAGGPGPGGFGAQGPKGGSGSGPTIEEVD

In turn, `N#Cc1ccc(COC[C@H]2O[C@@H](n3c(NCc4ccc(Cl)c(Cl)c4)nc4c(N)ncnc43)[C@H](O)[C@@H]2O)cc1` [adenosine-derived inhibitor (Grp78), 13] returned a Ki of less than 200 nM.
